Assay [1] concerns the target T1, Adenosine receptor A1 (Cavia porcellus, UniProt P47745).
T1 sequence (P47745 whole entry): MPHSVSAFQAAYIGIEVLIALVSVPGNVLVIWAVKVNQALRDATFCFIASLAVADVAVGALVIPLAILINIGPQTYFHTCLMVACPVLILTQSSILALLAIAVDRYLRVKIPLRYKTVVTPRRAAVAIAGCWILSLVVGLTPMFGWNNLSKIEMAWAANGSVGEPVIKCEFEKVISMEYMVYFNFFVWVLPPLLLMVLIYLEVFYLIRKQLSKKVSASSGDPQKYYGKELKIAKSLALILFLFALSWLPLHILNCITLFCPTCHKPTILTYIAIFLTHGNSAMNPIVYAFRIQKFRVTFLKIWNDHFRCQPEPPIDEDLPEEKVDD
The assay is described as follows: Prolongation of the stimulus-QRS interval by 50% of the maximum response at the Adenosine A1 receptor in langendorff guinea pig heart preparation. The format is functional.

The target of assay [2] is T2, Adenosine A2 receptor (Homo sapiens, UniProt P29275+P29274).
Description: Coronary arteries vasodilation at the Adenosine A2 receptor in langendorff guinea pig heart preparation
Assay [3] deals with T1, Adenosine receptor A1.
Description: Prolongation of the stimulus-QRS interval by 50% of the maximum response at the adenosine A1 receptor in langendorff guinea pig heart preparation
Assay [4] concerns the target T2, Adenosine A2 receptor. The source holds these as a separate data set.
Description: Coronary arteries vasodilation at the adenosine A2 receptor in langendorff guinea pig heart preparation

For the compound `Nc1nc(OCCCCC2CCCCC2)nc2c1ncn2C1O[C@@H](CO)[C@H](O)[C@@H]1O` (stereo partly specified), the EC50 (usually the concentration needed to bring the measured effect to its halfway point) on Adenosine receptor A1 [1] is 2.63 µM. Also, the “-Log EC50” value at Adenosine A2 receptor [2] is reported as 8.71.
For `Nc1nc(OC2CCCC2)nc2c1ncn2[C@H]1O[C@@H](CO)[C@H](O)[C@@H]1O` the same measures were 79.4 µM and 7.04.
`CCNC(=O)[C@H]1O[C@@H](n2cnc3c(N)nc(NCCc4ccc(CCC(=O)O)cc4)nc32)[C@H](O)[C@@H]1O` [CGS-21680] showed an EC50 on Adenosine receptor A1 [1] of 24.5 µM.
For `COc1nc(N)c2ncn([C@H]3O[C@@H](CO)[C@H](O)[C@@H]3O)c2n1`, the EC50 on Adenosine receptor A1 [3] is 9.33 µM. The “-Log EC50” value on Adenosine A2 receptor [4] is listed as 6.16.
`CC(C)Oc1nc(N)c2ncn(C3O[C@@H](CO)[C@H](O)[C@@H]3O)c2n1` (stereo partly specified): at Adenosine receptor A1 [1], the midpoint of the response, the EC50, lay at 224 µM. Further, on Adenosine A2 receptor [2], the “-Log EC50” value was found to be 5.86.
For `CC(C)COc1nc(N)c2ncn(C3O[C@@H](CO)[C@H](O)[C@@H]3O)c2n1` (stereo partly specified), in that order: 107 µM and 7.15.
For `CCCCCCOc1nc(N)c2ncn(C3O[C@@H](CO)[C@H](O)[C@@H]3O)c2n1` (stereo partly specified), in that order: 13.8 µM and 8.42.
For `CCOc1nc(N)c2ncn(C3O[C@@H](CO)[C@H](O)[C@@H]3O)c2n1` (stereo partly specified) the same measures were 79.4 µM and 6.44.
Regarding `CC1(C)C2CCC(C(=O)CCOc3nc(N)c4ncn(C5O[C@@H](CO)[C@H](O)[C@@H]5O)c4n3)C1C2` (stereo partly specified), the EC50 on Adenosine receptor A1 [1] was 4.47 µM. Besides, the “-Log EC50” value at Adenosine A2 receptor [2] is recorded as 8.24.
For `CCC(CC)COc1nc(N)c2ncn(C3O[C@@H](CO)[C@H](O)[C@@H]3O)c2n1` (stereo partly specified), in that order: 35.5 µM and 6.54.
At Adenosine receptor A1 [3], `Nc1nc(OCCCC2CCCCC2)nc2c1ncn2C1O[C@@H](CO)[C@H](O)[C@@H]1O` (stereo partly specified) gave an EC50 of 3.72 µM. Moreover, the “-Log EC50” value at Adenosine A2 receptor [4] came to 8.67.
On to `CCCOc1nc(N)c2ncn(C3O[C@@H](CO)[C@H](O)[C@@H]3O)c2n1` (stereo partly specified), for which, on Adenosine receptor A1 [1], a half-maximal response (EC50) required 148 µM. Also, the “-Log EC50” value on Adenosine A2 receptor [2] was 7.28.
In the case of `Nc1nc(Cl)nc2c1ncn2[C@@H]1O[C@H](CO)[C@@H](O)[C@H]1O`, at Adenosine receptor A1 [3], a half-maximal response (EC50) required 0.191 µM. Further, the “-Log EC50” value on Adenosine A2 receptor [4] is recorded as 7.6.
For `COc1cc(OC)cc(C(CNc2ncnc3c2ncn3[C@@H]2O[C@H](CO)[C@@H](O)[C@H]2O)c2ccccc2C)c1` (stereo partly specified) the same measures were 5.62 µM and 9.35.
For `Nc1nc(Nc2ccccc2)nc2c1ncn2[C@@H]1O[C@H](CO)[C@@H](O)[C@H]1O`, in that order: 12.6 µM and 7.74.
As for `CCCCCOc1nc(N)c2ncn(C3O[C@@H](CO)[C@H](O)[C@@H]3O)c2n1` (stereo partly specified), the EC50 at Adenosine receptor A1 [1] was 45.7 µM. For the same compound, the “-Log EC50” value at Adenosine A2 receptor [2] was determined as 7.94.
For `Nc1nc(OCCO)nc2c1ncn2C1O[C@@H](CO)[C@H](O)[C@@H]1O` (stereo partly specified) the same measures were 2.19 µM and 7.18.
At Adenosine receptor A1 [1], `O=C(Nc1ncnc2c1ncn2[C@@H]1O[C@H](CO)[C@@H](O)[C@H]1O)[C@H]1C[C@H]2CC[C@@H]1C2` gave an EC50 of 0.00537 µM. The “-Log EC50” value on Adenosine A2 receptor [2] is 7.08.
For the compound `Nc1nc(OCC2CCCCC2)nc2c1ncn2C1O[C@@H](CO)[C@H](O)[C@@H]1O` (stereo partly specified), a half-maximal effect on Adenosine receptor A1 [3] (EC50) was put at 50.1 µM. Besides, at Adenosine A2 receptor [4], the “-Log EC50” value is recorded as 6.75.
For `CC(C)N(c1ccccc1)c1ncnc2c1ncn2C1O[C@H](CO)[C@@H](O)[C@H]1O` (stereo partly specified), it took 0.0339 µM to reach a half-maximal effect on Adenosine receptor A1 [1] (EC50). Also, the “-Log EC50” value on Adenosine A2 receptor [2] is recorded as 7.88.
For the compound `Nc1nc(=O)[nH]c2c1ncn2[C@@H]1O[C@H](CO)[C@@H](O)[C@H]1O` [ISOGUANOSINE], the response at Adenosine receptor A1 [1] was half-maximal at 1.15 µM (EC50). Besides, the “-Log EC50” value on Adenosine A2 receptor [2] is recorded as 7.1.
With `CCCCOc1nc(N)c2ncn(C3O[C@@H](CO)[C@H](O)[C@@H]3O)c2n1` (stereo partly specified), it took 37.2 µM to reach a half-maximal effect at Adenosine receptor A1 [1] (EC50). The “-Log EC50” value at Adenosine A2 receptor [2] is 7.28.
With `Nc1nc(OCCC2CCCC2)nc2c1ncn2C1O[C@@H](CO)[C@H](O)[C@@H]1O` (stereo partly specified), the EC50 at Adenosine receptor A1 [3] was 14.1 µM. The “-Log EC50” value at Adenosine A2 receptor [4] is listed as 8.41.
As to `CC(C)CCCOc1nc(N)c2ncn(C3O[C@@H](CO)[C@H](O)[C@@H]3O)c2n1` (stereo partly specified), the 50% effective concentration (EC50) on Adenosine receptor A1 [1] is 22.9 µM. On Adenosine A2 receptor [2], the “-Log EC50” value is recorded as 8.45.
On Adenosine receptor A1 [1], `Nc1nc(OC2CCCCC2)nc2c1ncn2C1O[C@@H](CO)[C@H](O)[C@@H]1O` (stereo partly specified) gave an EC50 of 100 µM. At Adenosine A2 receptor [2], the “-Log EC50” value came to 6.18.
`Nc1nc(OCCC(=O)[C@H]2CC3CCC2C3)nc2c1ncn2C1O[C@@H](CO)[C@H](O)[C@@H]1O` (stereo partly specified) had an EC50 on Adenosine receptor A1 [3] of 8.71 µM. Moreover, at Adenosine A2 receptor [4], the “-Log EC50” value came to 8.35.
`Nc1nc(OCCC2CCCCC2)nc2c1ncn2C1O[C@@H](CO)[C@H](O)[C@@H]1O` (stereo partly specified) showed an EC50 on Adenosine receptor A1 [3] of 8.71 µM. Besides, the “-Log EC50” value on Adenosine A2 receptor [4] is listed as 8.99.
In turn, `CC#CCCOc1nc(N)c2ncn(C3O[C@@H](CO)[C@H](O)[C@@H]3O)c2n1` (stereo partly specified) gave an EC50 at Adenosine receptor A1 [1] of 63.1 µM. Besides, at Adenosine A2 receptor [2], the “-Log EC50” value is on record as 7.56.
For `CCC(CC)CCOc1nc(N)c2ncn(C3O[C@@H](CO)[C@H](O)[C@@H]3O)c2n1` (stereo partly specified), in that order: 15.8 µM and 7.8.
Compound `CC(C)CCOc1nc(N)c2ncn(C3O[C@@H](CO)[C@H](O)[C@@H]3O)c2n1` (stereo partly specified) had an EC50 on Adenosine receptor A1 [1] of 66.1 µM. Further, the “-Log EC50” value at Adenosine A2 receptor [2] is 7.61.
For `CCC(C)Oc1nc(N)c2ncn(C3O[C@@H](CO)[C@H](O)[C@@H]3O)c2n1` (stereo partly specified) the same measures were 891 µM and 5.45.
